These results are taken from ChEMBL document CHEMBL4304747, “Structural Tailoring of a Novel Fluorescent IRE-1 RNase Inhibitor to Precisely Control Its Activity” (J Med Chem, 2019).

Data set [1] in a line: Drug metabolism in RPMI media assessed as hydrolysis at measured up to 25 hrs by HPLC analysis.
In data set [2] the target is Serine/threonine-protein kinase/endoribonuclease IRE1 (Mus musculus) (UniProt Q9EQY0). The experiment in a line: Binding affinity to IRE1 in mouse 5TGM1 cells assessed as inhibition of IRE1/XBP1 pathway activation by measuring reduction in XBP1s expression at 10 uM measured after 3 days by immunoblot analysis. Format: cell-based. (In western blotting, separated proteins are transferred to a membrane and probed.)

Data set [3] deals with 5TGM1. The experiment in a line: Cytotoxicity against mouse 5TGM1 cells assessed as growth inhibition at 20 uM measured after 4 days by XTT assay. It is filed as functional, cell-based.
In data set [4] the target is Serine/threonine-protein kinase/endoribonuclease IRE1 (Mus musculus) (UniProt Q9EQY0). Briefly: Binding affinity to IRE1 in mouse 5TGM1 cells assessed as inhibition of IRE1/XBP1 pathway activation by measuring reduction in XBP1s expression at 2.5 uM measured up to 4 hrs by immunoblot analysis. Format: cell-based.
Data set [5] deals with 5TGM1. The experiment in a line: Cytotoxicity against mouse 5TGM1 cells assessed as growth inhibition at 20 uM measured after 3 days by XTT assay. It is filed as functional, cell-based. A general note: Formazan colour is commonly taken as a measure of viable cells.
The species entered for data set [6] is Homo sapiens. The experiment in a line: Cytotoxicity against human WaC3 cells assessed as growth inhibition at 20 uM measured after 3 days by XTT assay. It is filed as functional, cell-based.
The nature of data set [7]: Stability in PBS/DMSO assessed as increase in fluorescence intensity at 10 uM. Format: physicochemical. Conditions: buffer.
In data set [8] the target is Serine/threonine-protein kinase/endoribonuclease IRE1 (Mus musculus) (UniProt Q9EQY0). Briefly: Binding affinity to IRE1 in mouse 5TGM1 cells assessed as inhibition of IRE1/XBP1 pathway activation by measuring reduction in XBP1s expression at 10 uM measured up to 24 hrs by immunoblot analysis. It is filed as cell-based.
Data set [9] shares this target. Briefly: Binding affinity to IRE1 in mouse 5TGM1 cells assessed as inhibition of IRE1/XBP1 pathway activation by measuring reduction in XBP1s expression at 10 uM measured after 2 days by immunoblot analysis. It is filed as cell-based.
Data set [10] is described as follows: Stability in PBS/DMSO assessed as increase in fluorescence intensity at 10 uM at 365 nm light illumination by fluorescence imaging analysis.
Data set [11] is described as follows: Stability in PBS/DMSO assessed as change in fluorescence intensity at 10 uM at 460 nm. It is filed as physicochemical. Conditions: buffer.
The target in data set [12] is Serine/threonine-protein kinase/endoribonuclease IRE1 (Mus musculus) (UniProt Q9EQY0). Briefly: Binding affinity to IRE1 in LPS-stimulated mouse primary B cells assessed as inhibition of IRE1/XBP1 pathway activation by measuring reduction in XBP1s expression at 2.5 to 5 uM measured after 2 hrs by immunoblot analysis.
Data set [13] shares this target. The experiment in a line: Binding affinity to IRE1 in mouse 5TGM1 cells assessed as inhibition of IRE1/XBP1 pathway activation by measuring reduction in XBP1s expression at 5 uM measured after 24 hrs by immunoblot analysis. It is filed as cell-based.
A short description of data set [14]: Stability in PBS/DMSO assessed as compound decomposition by measuring decrease in fluorescence intensity at 10 uM measured after 48 hrs. It is filed as physicochemical. Conditions: read-out: Drug degradation.
The nature of data set [15]: Drug metabolism in pH 7.4 PBS/DMSO assessed as 1,3-dioxane acetal hydrolysis measured after 48 hrs by HPLC analysis.
Data set [16] can be described thus: Drug metabolism in RPMI media assessed as 1,3-dioxane acetal hydrolysis measured after 96 hrs by HPLC analysis.
The target in data set [17] is Serine/threonine-protein kinase/endoribonuclease IRE1 (Mus musculus) (UniProt Q9EQY0). Briefly: Binding affinity to IRE1 in mouse 5TGM1 cells assessed as inhibition of IRE1/XBP1 pathway activation by measuring reduction in XBP1s expression at 10 uM preincubated for 4 hrs followed by three times compound washout and subsequent 1 mW/cm2 UV irradiation for 10 mins measured after 8 hrs by immunoblot analysis. It is filed as cell-based.

The species entered for data set [18] is Homo sapiens. The experiment in a line: Cytotoxicity against human WaC3 cells assessed as growth inhibition at 20 uM measured after 1 day by XTT assay. Format: functional, cell-based.
Data set [19] is described as follows: Stability in PBS/DMSO assessed as change in fluorescence intensity at 10 uM. Conditions: buffer. It is filed as physicochemical.
Data set [20] in a line: Prodrug conversion in DMSO/PBS solution assessed as DF07 formation by measuring increase in fluorescence intensity at 10 uM irradiated with 1 mW/cm2 UV light relative to control. Format: ADME.
Data set [21] can be described thus: Prodrug conversion in cytoplasm of mouse 5TGM1 cells assessed as DF07 formation by measuring increase in fluorescence intensity at 10 uM treated for 4 hrs measured 10 secs post irradiation with 50 mW DAPI filtered diode laser by confocal microscopic analysis. Format: ADME, subcellular. Conditions: 5tgm1, 4 h.
For data set [22], the target named is Serine/threonine-protein kinase/endoribonuclease IRE1 (Mus musculus) (UniProt Q9EQY0). Briefly: Binding affinity to IRE1 in mouse 5TGM1 cells assessed as inhibition of IRE1/XBP1 pathway activation by measuring reduction in XBP1s expression at 10 uM irradiated with 1 mW/cm2 UV light for up to 10 mins and measured after 4 hrs by immunoblot analysis. It is filed as cell-based.

For data set [23] the target is unchanged. Briefly: Binding affinity to IRE1 in mouse 5TGM1 cells assessed as inhibition of IRE1/XBP1 pathway activation by measuring reduction in XBP1s expression at 10 uM measured after 4 hrs by immunoblot analysis. Format: cell-based.
A short description of data set [24]: Stability in pH 7.4 PBS/DMSO measured after 48 hrs by HPLC analysis. It is filed as physicochemical. Conditions: buffer, pH 7.4, 48 h.
A short description of data set [25]: Stability in RPMI media measured after 96 hrs by HPLC analysis. It is filed as physicochemical.

Activity calls are given as the source filed them. The calls are words filed in the database; no cut-off is given here.

Chain of Serine/threonine-protein kinase/endoribonuclease IRE1 (Mus musculus) (Q9EQY0 whole entry): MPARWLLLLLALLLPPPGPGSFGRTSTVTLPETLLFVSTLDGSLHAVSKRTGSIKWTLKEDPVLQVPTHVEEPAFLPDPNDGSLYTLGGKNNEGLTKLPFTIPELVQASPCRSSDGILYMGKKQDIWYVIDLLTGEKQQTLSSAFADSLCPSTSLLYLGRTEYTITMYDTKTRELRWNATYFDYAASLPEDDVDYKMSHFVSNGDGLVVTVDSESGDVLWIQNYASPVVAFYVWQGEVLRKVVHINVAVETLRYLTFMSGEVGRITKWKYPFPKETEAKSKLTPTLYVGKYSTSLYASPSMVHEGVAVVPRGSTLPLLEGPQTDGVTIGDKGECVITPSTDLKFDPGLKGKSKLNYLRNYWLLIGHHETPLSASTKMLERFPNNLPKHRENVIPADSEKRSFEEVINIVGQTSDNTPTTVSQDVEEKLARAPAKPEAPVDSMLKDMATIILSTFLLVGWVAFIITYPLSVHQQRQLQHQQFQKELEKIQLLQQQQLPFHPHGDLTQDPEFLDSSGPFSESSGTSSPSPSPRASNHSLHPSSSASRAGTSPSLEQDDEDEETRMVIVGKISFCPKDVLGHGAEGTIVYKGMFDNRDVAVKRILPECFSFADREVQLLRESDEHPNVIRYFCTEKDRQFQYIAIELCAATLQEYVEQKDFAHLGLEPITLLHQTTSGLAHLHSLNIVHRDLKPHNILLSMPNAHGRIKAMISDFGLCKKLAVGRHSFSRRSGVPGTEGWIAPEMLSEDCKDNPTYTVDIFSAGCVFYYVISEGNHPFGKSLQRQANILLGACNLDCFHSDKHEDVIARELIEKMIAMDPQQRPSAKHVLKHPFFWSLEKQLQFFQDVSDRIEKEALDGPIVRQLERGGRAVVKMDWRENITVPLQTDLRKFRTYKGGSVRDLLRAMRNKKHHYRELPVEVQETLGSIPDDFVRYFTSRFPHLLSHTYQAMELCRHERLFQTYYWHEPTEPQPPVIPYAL

With `CN1CCc2c(c(=O)oc3c(C4OCCCO4)c(O)ccc23)C1`, in [1], the Drug metabolism result is on record as “Metabolite detected”. In addition, the inhibition entry in data set [2] and in [4] was “Active” in each case. In addition, the “growth inhibition (GI)” value in the data set on 5TGM1 [3], with 5TGM1 [5] and in the data set listed under Homo sapiens [6] was “Active” each time. The Stability result in [7] is given as “Stable”.
With `C=CCOC(=O)N1CCc2c(c(=O)oc3c(C=O)c(O)ccc23)C1`, the inhibition result in data set [8] is “Active”.
On to `CN1CCc2c(c(=O)oc3c(C=O)c(O)ccc23)C1`, for which the inhibition result in data set [8] was “Active”. Also, the “growth inhibition (GI)” value with 5TGM1 [3] and in the data set with 5TGM1 [5] was “Active” each time. Moreover, in data set [9], the inhibition entry was “inactive”. The Stability result in data set [7] and in data set [10] was “Stable” throughout.
`O=Cc1c(O)ccc2c3c(c(=O)oc12)CNCC3`: the inhibition result in data set [8] was “Active”. Further, the “growth inhibition (GI)” value in the data set on 5TGM1 [3] was “Active”. For the same compound, in [9], the inhibition entry is “inactive”. The Stability result in data set [7] and in data set [10] was “Stable” in each case.
As for `COc1cc2c3c(c(=O)oc2c(C2OCCCO2)c1O)CNCC3`, the inhibition entry in [2] was “Active”. Further, the Stability result in data set [11] is recorded as “Stable”.
As to `CC(=O)N/N=C/c1c(O)ccc2c3c(c(=O)oc12)CN(C)CC3`, in data set [1], the Drug metabolism result is “Metabolite detected”. The inhibition entry in [2], in [4] and in data set [12] was “Active” each time. Moreover, the “growth inhibition (GI)” value in the data set filed under Homo sapiens [6] is “Active”. Besides, the Stability entry in [7] is on record as “Unstable”.
As to `CC1(C)COC(c2c(O)ccc3c4c(c(=O)oc23)CNCC4)OC1`, in data set [13], the inhibition entry is “Active”. For the same compound, the degraded at 48 h, 10 µM in data set [14] came to 60%. In addition, the Stability entry in data set [7] is reported as “Stable”.
For the compound `COc1cc2c3c(c(=O)oc2c(C2OCCCO2)c1O)CN(C)CC3`, the inhibition entry in [2] is “Active”. For the same compound, the “growth inhibition (GI)” value in the data set on 5TGM1 [5] and in the data set filed under Homo sapiens [6] was “Active” in each case. In data set [11], the Stability result was “Stable”. For the same compound, the Drug metabolism in data set [15] and in data set [16] was 70% in each case. For the same compound, the inhibition result in data set [17] is “inactive”.
`COc1cc2c3c(c(=O)oc2c(/C=N/NC(C)=O)c1O)CN(C)CC3`: the inhibition entry in [2] and in data set [4] was “Active” each time. Moreover, the “growth inhibition (GI)” value in the data set filed under Homo sapiens [6] was “inactive”. In addition, the “growth inhibition (GI)” value in the data set filed under Homo sapiens [18] was “Active”. Also, the Stability entry in data set [19] is given as “Unstable”.
For `O=c1oc2c(C3OCCCO3)c(O)ccc2c2c1CNCC2`, the inhibition entry in data set [2] and in data set [13] was “Active” each time. Further, the “growth inhibition (GI)” value with 5TGM1 [3] is “Active”. Moreover, the degraded at 48 h, 10 µM in [14] worked out at 5.1%.
With `O=c1oc2c(/C=N/N3CCCCC3)c(O)ccc2c2c1CNCC2`, in data set [7], the Stability entry is listed as “Unstable”.
Consider `COc1cc2c3c(c(=O)oc2c(C2OCCCO2)c1OC(C)c1ccc(C(=O)OCC[Si](C)(C)C)cc1[N+](=O)[O-])CN(C)CC3` (stereo not given), for which the “fold change (FC)” value in data set [20] came to 75. In addition, in data set [21], the Drug metabolism result is reported as “Metabolite_Detected”. Also, the inhibition result in data set [22] and in [17] was “Active” in each case. Further, the inhibition result in data set [23] is “inactive”. Further, the Stability entry in data set [24] and in data set [25] was “Stable” each time.
With `CN1CCc2c(c(=O)oc3c(/C=N/N4CCCCC4)c(O)ccc23)C1`, the Stability result in data set [7] is “Unstable”.
